In patent US20240254086A1, “(HETERO)ARYLAMIDE COMPOUND AND PEST CONTROL AGENT” (Nippon Soda Co., Ltd., priority 2021, published 2024):

Tests used:
Format in all cases: in vivo
Tetranychus urticae = assay: Efficacy test against Tetranychus urticae (spray on green beans); settings: 240 h, 125 ppm by mass, sprayed on green beans, adult females, 10 days after spraying, 25° C., read-out: insecticical rate against Tetranychus urticae (mortality of adults)
Experimental: (§1) 5 parts by mass of the compound of the present invention, 93.6 parts by mass of dimethylformamide, and 1.4 parts by mass of polyoxyethylene alkylaryl ether were mixed and dissolved to prepare an emulsion (I) containing 5% of an active ingredient.
Seedlings of green beans were grown in 3-inch pots, and 8 adult female Tetranychus urticae from Aomori Prefecture were inoculated onto the first leaves. […] The diluent solution was sprayed on the green beans. The green beans were then placed in a thermostatic chamber with a temperature of 25° C. and humidity of 65%. Mortality of the adult […] was investigated after 10 days had passed from the spraying. The test was repeated twice.

Tetranychus kanzawai = assay: Efficacy test against Tetranychus kanzawai (spray on kidney bean); settings: 240 h, 125 ppm by mass, sprayed on kidney bean plants, adult females, 10 days after spraying, 25° C., read-out: insecticical rate against Tetranychus kanzawai (mortality of adults)
Description: as §1
The primary leaves of Kidney bean plants were inoculated with 5 adult female Tetranychus kanzawai from Okayama Prefecture. […] This drug was sprayed on the Kidney bean plants and air-dried. The kidney bean seedlings were then placed in a thermostatic chamber with a temperature of 25° C. and humidity of 65%. Mortality of the adult […] was investigated after 10 days had passed from the spraying. The test was repeated twice.

Mythimna separata = assay: Efficacy test against Mythimna separata (maize leaf dip); settings: 125 ppm by mass, maize leaf pieces immersed 30 seconds, second-instar larvae, 6 days after release, 25° C.
Description: as §1
Maize leaf pieces were immersed in the diluent solution for 30 seconds. These maize leaf pieces were placed in a petri dish, and five second-instar larvae of Mythimna separata were released to prepare an emulsion-treated section.
Similarly, the solvent control solution was diluted with water at the same ratio as that of the emulsion (I), and maize leaf pieces were immersed therein for 30 seconds. These maize leaf pieces were placed in a petri dish, and five second-instar larvae of Mythimna separata were released to prepare a solvent control section.
The petri dishes were left to stand in a thermostatic chamber at a temperature of 25° C. and a humidity of 60% during the test period. Mortality was evaluated at a time of passage of 6 days from the release of the insects, and the insecticidal rate in the emulsion-treated section was calculated, based on the following expression. At the same time, the food consumptions in the emulsion-treated section and the solvent control section were measured. The test was repeated twice.
Insecticidal rate (%)=(Number of dead insects/Number of test insects)×100

## CCSCCC(CC)(CC)CNC(=O)c1cc(C#N)c(-c2ccc(C(F)(F)F)cc2)nc1C [A-78, 5-Cyano-N-[2,2-diethyl-4-(ethylthio)butyl]-2-methyl-6-[4-(trifluoromethyl)phenyl]nicoti namide]
Tetranychus urticae
  mortality at 125 ppm: ≥ 90%
Tetranychus kanzawai
  mortality at 125 ppm: ≥ 90%

## CCSCCC(CC)(CC)CNC(=O)c1cc(C#N)c(-c2ccc(C(F)(F)F)cc2)cc1C(F)(F)F [C-7, 2-Cyano-N-[2,2-diethyl-4-(ethylthio)butyl]-4′,5-bis(trifluoromethyl)-(1,1′-biphenyl)-4-ca rboxamide]
Tetranychus urticae
  mortality at 125 ppm: ≥ 90%
Tetranychus kanzawai
  mortality at 125 ppm: ≥ 90%

## CCSCCC(CC)(CC)CNC(=O)c1cc(C#N)c(-c2ccc(OC(F)(F)F)cc2OC)nc1C [A-27]
Mythimna separata
  Insecticidal rate against Mythimna separata: 90%

## CCSCC(C)(C)CNC(=O)c1cc(C#N)c(-c2ccc(C(F)(F)F)cc2)nc1C [A-147, 5-Cyano-N-[3-(ethylthio)-2,2-dimethylpropyl]-2-methyl-6-[4-(trifluoromethyl)phenyl]ni cotinamide]
Tetranychus urticae
  mortality at 125 ppm: ≥ 90%
Tetranychus kanzawai
  mortality at 125 ppm: ≥ 90%

## CCSCC(C)(C)CN(C)C(=O)c1cc(C#N)c(-c2ccc(C(F)(F)F)cc2)nc1C [A-146, 5-Cyano-N-[3-(ethylthio)-2,2-dimethylpropyl]-N,2-dimethyl-6-[4-(trifluoromethyl)pheny 1]nicotinamide]
Tetranychus urticae
  mortality at 125 ppm: ≥ 90%
Tetranychus kanzawai
  mortality at 125 ppm: ≥ 90%

## CCSCCC(C)(C)CN(C)C(=O)c1cc(C#N)c(-c2ccc(C(F)(C(F)(F)F)C(F)(F)F)cc2)nc1C [A-105]
Mythimna separata
  Insecticidal rate against Mythimna separata: 90%
